# Reference: PMC10613275 (Scientific Reports, 2023)
# Where two headings read alike, the source gives them in different places. Marks after values point to notes of the source that are not given here.
# Legend:
# RPTEC/TERT1 cells = assay: Nephrotoxicity, RT-qPCR of kidney damage biomarkers; format: cell-based, human; details: 100 µM, 48 h, normalized to GAPDH and ACTB
# Description: RPTEC/TERT1 cells were seeded at a concentration of 2 × 10^5 cells/ml in ProxUp2 medium into 60 mm Petri dishes. After 24 h, the cells were washed with PBS and […] metabolites (100 μM) were applied in fresh ProxUp2 medium. The cells were incubated with samples for 48 h, after which the cells were washed with PBS and dishes were frozen in - 160 °C. The RNA was isolated using RNeasy Plus Mini Kit (Qiagen, Hilden, Germany). The RNA concentration and purity was determined with NanoDrop One (ThermoFisher Scientific) spectrophotometr. The cDNA synthesis was performed from 0.1 μg of total RNA with an iScript Reverse Transcription Supermix (Bio-Rad, Hercules, California, USA). Quantitative real-time PCR (qPCR) was performed using the qPCR Bio-Rad C100 Touch System (Bio-Rad) with a 96-well block. The reaction mixture consisted of 1 μl of specific 20 × PrimePCR Assay (Bio-Rad), 10 μl of 2 × SsoAdvance Universal Supermix (Bio-Rad), 2 μl of cDNA sample, 7 μl of nuclease-free water. The final reaction volume was 20 μl. […] Cycling parameters were: initial denaturation at 95 °C for 2 min, followed by 40 cycles of 95 °C for 5 s and 60 °C for 30 s. Fluorescence values were acquired after each extension phase. Samples were analyzed in triplicate, and samples with a standard deviation of duplicates > 0.2 Ct were re-analyzed. A non-template control containing nuclease-free water instead of cDNA as well as non-RT control containing purified RNA without reverse transcription was used. The real-time PCR study followed the MIQE guidelines. Relative transcript levels of the estimated genes in the cell lines were compared using the software CFX Maestro Software 2.3 (Bio-Rad).
# [1] = parameters: method as in PMID 32763837; details: children and adolescents in Germany ref 40; cited from earlier work
# CHO-K1 cells (hprt gene) [2] = assay: CHO/HPRT mutation assay; format: cell-based, Chinese hamster; details: 3MC 2 µg/ml
# CHO-K1 cells (hprt gene) [3] = assay: CHO/HPRT mutation assay; format: cell-based, Chinese hamster; details: Table 4, With S9; lilial 500 µM, 3MC 2 µg/ml
# Description: The test with metabolic activation was performed as described in the OECD protocol, the ASTM standard[23] and other protocols[30],[31] and publications. For the test, cryopreserved CHO-K1 cells after the mutant cleansing were used. Mutant cleansing was performed according to[30], i.e. cells were cultivated three days in HAT medium, one day in HT medium and then frozen.
# One passage after the thawing, 1 × 10^6 cells were seeded in 60 mm cultivation plates as described in[32]. […] The final concentration of the solvent, DMSO, was 1%. […] EMS at final concentration 2 mM as recommended in[31] served as a positive control. 3-MC at final concentration […][22] served as a positive control for metabolic activation. 1% DMSO was used as a VC. Sole cultivation medium served as a negative control (NC). After 4 h, the medium with tested substances was removed, plates were washed with PBS and fresh medium with 10% FBS was added.
# During the expression period (1 week), the cells on all 60 mm plates were passaged once. On day 8, cells were trypsinized, resuspended, counted and 2 × 10^5 cells of each plate were seeded on 60 mm plates in triplicates in the presence of a selective agents, 6-TG (30 µM) as described in[32]. […] 300 cells without the selective agent were seeded in a parallel to evaluate plating efficiency (PE). On day 15, the plates were washed with PBS, cells were fixed with ice cold methanol for 10 min and stained with 0.05% crystal violet in water for 30 min[33]. After washing with water, formed colonies were counted using Schuett Count (Schuett-biotec, Göttingen, Germany). Calculations were done as described in[29]. PE was calculated according to a general Eq. 1. Particular PE at selective conditions was calculated according to Eq. 2. Particular PE at non-selective conditions was calculated according to Eq. 3. Mutation frequency (MF) was calculated according to Eq. 4.1 PE=numberofcoloniesformed/numberofcellsplated 2 PEselective=numberofmutantcoloniesNMC/200,000 3 PEnon-selective=numberofcoloniesformed/300 4 MF=PEselectiveconditions/PEnon-selectiveconditions
# [4] = system: MCF-7 human breast cancer cells; details: lilial 100 µM, estrogen 10 nM; unaffected control 1.8 doublings ref 8; cited from earlier work
# androgen receptor = assay: Androgenic activity, transactivation luciferase assay in MDA-kb2; details: MDA-kb2, positive control
# From the text: Results were expressed as fold induction (FI), i.e. fold increase compared to vehicle control. According to EPA[28], FI of positive control should be above 4 to meet the performance standard.
# rats = rats ref 41; cited from earlier work
# CHO-K1 cells = format: cell-based, Chinese hamster; details: lilial 100 µM, PC 30 μM; for Fold, mean (γH2AX over negative control): above 1.5 indicates genotoxicity
# Description: (§1) Briefly, HeLa and CHO-K1 cells were seeded at a concentration of 1 × 10^5 cells/ml into the 96-well plates. CHO-K1 cells were used for comparison with HPRT test. HeLa cells were recommended by the manufacturer of the kit. After 24 h, cells were rinsed with PBS and cultivation medium (“Cell lines” Section) without ATB, with a reduced content of FBS (5%) was added. 30 µM valinomycin (in DMSO) was used as a positive control Samples were applied in the presence of non-toxic sample concentrations, i.e. 100 µM either with or without S9 mix. […] Cells were photographed using a fluorescence microscope (Olympus IX83); filters: DAPI (500 ms) and Cy3 (500 ms). Bioimage analysis in ImageJ software was performed as described previously.
# HeLa cells = assay: γH2AX biomarker-based genotoxicity assay, HeLa; format: cell-based, human; details: PC 30 μM; for Fold, mean (γH2AX over negative control): above 1.5 indicates genotoxicity
# Description: as §1
# [5] = Table 4, Without S9, lilial 500 µM
molecule,measurement,setting,value
CN(C)[C@@H]1C(O)=C(C(N)=O)C(=O)[C@@]2(O)C(O)=C3C(=O)c4c(O)cccc4[C@@](C)(O)[C@H]3C[C@@H]12 [Tetracycline],"Relative fold gene expression, CLU",RPTEC/TERT1 cells,4.09*
same,"Relative fold gene expression, CST3",RPTEC/TERT1 cells,1.64*
same,"Relative fold gene expression, HMOX",RPTEC/TERT1 cells,4.93**
same,"Relative fold gene expression, IL6",RPTEC/TERT1 cells,1.70
same,"Relative fold gene expression, IL8",RPTEC/TERT1 cells,1.19
same,"Relative fold gene expression, IPO8",RPTEC/TERT1 cells,1.41**
same,"Relative fold gene expression, TIMP1",RPTEC/TERT1 cells,1.31
CC(Cc1ccc(C(C)(C)C)cc1)C(=O)O (stereo not shown) [lysmerylic acid],Geometric mean concentration in urine,[1],< 0.2 µg/L
CC(Cc1ccc(C(C)(C)CO)cc1)C(=O)O (stereo not shown) [hydroxy-lysmerylic acid],Geometric mean concentration in urine,[1],< 0.4 µg/L
"Cc1ccc2cc3c(ccc4ccccc43)c3c2c1CC3 [3MC, 3-methylcholanthren]",MF (/106) mutation frequency,"CHO-K1 cells (hprt gene) [2]; Table 4, With S9, lilial 500 µM",152 ± 14 /106
same,MF (/10^6) mutation frequency,"CHO-K1 cells (hprt gene) [2]; Table 4, Without S9",25 ± 31 /10^6
same,NMC (number of mutant colonies),CHO-K1 cells (hprt gene) [2]; [5],3 ± 4
same,PE (%) plating efficiency,CHO-K1 cells (hprt gene) [2]; [5],66 ± 3%
same,NMC (number of mutant colonies),CHO-K1 cells (hprt gene) [3],17 ± 2
same,PE (%) plating efficiency,CHO-K1 cells (hprt gene) [3],55 ± 4%
estrogen [reference compound],Cell doublings,[4],5.2 doublings
"C[C@]12CCC(=O)C[C@@H]1CC[C@@H]1[C@@H]2CC[C@]2(C)[C@@H](O)CC[C@@H]12 [DHT, dihydrotestosterone, reference compound]",Concentration from which fold induction (FI) significantly increased,androgen receptor,≥ 0.5 nM
CC(C)(C)c1ccc(C(=O)O)cc1 [p-tert-butylbenzoic acid],Effects on male reproduction,rats,adverse effects on male reproduction
same,Geometric mean concentration in urine,[1],10.21 µg/L
"CC(C)[C@@H]1NC(=O)[C@H](C)OC(=O)[C@@H](C(C)C)NC(=O)[C@@H](C(C)C)OC(=O)[C@H](C(C)C)NC(=O)[C@H](C)OC(=O)[C@@H](C(C)C)NC(=O)[C@@H](C(C)C)OC(=O)[C@H](C(C)C)NC(=O)[C@H](C)OC(=O)[C@@H](C(C)C)NC(=O)[C@@H](C(C)C)OC1=O [PC, valinomycin]",MoA (mean fluorescence values over area of the nuclei),"CHO-K1 cells; CHO-K1, 4h_S9",0.99
same,"RA (%), mean (relative area of nuclei)","CHO-K1 cells; CHO-K1, 4h_S9",90.8%
same,"Fold, mean (γH2AX over negative control)","CHO-K1 cells; CHO-K1, 4h_S9",1.35
same,MoA (mean fluorescence values over area of the nuclei),"CHO-K1 cells; CHO-K1, 4 h, without S9",1.14
same,"RA (%), mean (relative area of nuclei)","CHO-K1 cells; CHO-K1, 4 h, without S9",75.3%
same,"Fold, mean (γH2AX over negative control)","CHO-K1 cells; CHO-K1, 4 h, without S9",1.45
same,MoA (mean fluorescence values over area of the nuclei),"CHO-K1 cells; CHO-K1, 24 h",5.26
same,"RA (%), mean (relative area of nuclei)","CHO-K1 cells; CHO-K1, 24 h",48.5%
same,"Fold, mean (γH2AX over negative control)","CHO-K1 cells; CHO-K1, 24 h",4.43
same,MoA (mean fluorescence values over area of the nuclei),"HeLa cells; 4h_S9, lilial 100 µM",0.29**
same,"RA (%), mean (relative area of nuclei)","HeLa cells; 4h_S9, lilial 100 µM",97.8%
same,"Fold, mean (γH2AX over negative control)","HeLa cells; 4h_S9, lilial 100 µM",2.94
same,MoA (mean fluorescence values over area of the nuclei),"HeLa cells; 4 h, without S9, lilial 100 µM",0.13*
same,"RA (%), mean (relative area of nuclei)","HeLa cells; 4 h, without S9, lilial 100 µM",95.8%
same,"Fold, mean (γH2AX over negative control)","HeLa cells; 4 h, without S9, lilial 100 µM",2.63
same,MoA (mean fluorescence values over area of the nuclei),"HeLa cells; 24 h, lilial 100 µM",0.55*
same,"RA (%), mean (relative area of nuclei)","HeLa cells; 24 h, lilial 100 µM",101.5%
same,"Fold, mean (γH2AX over negative control)","HeLa cells; 24 h, lilial 100 µM",24.03
